Measurements as given in US20230085307A1, “PYRIDAZINONE COMPOUND AND HERBICIDE” (NISSAN CHEMICAL CORPORATION, priority 2019, published 2023).

Legend:
[1] = system: lambsquarters; experiment: Test Example 5: herbicidal effect by foliage application, plastic box (Table 20, symbol O); format: in vivo, lambsquarters (Chenopodium album); conditions: evaluated three weeks after application
In short: (§1)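 Post-emergence foliar test in sterilized diluvial soil. Compound applied as water-diluted emulsion at a predetermined rate to 14-day-old plants; evaluation at three weeks.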

[2] = system: redroot pigweed; experiment: Test Example 4: herbicidal effect by soil treatment (Table 19, symbol N); format: in vivo, redroot pigweed (Amaranthus retroflexus); conditions: amount of applied herbicide 320 g/ha
In short: (§2)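 Scoring uses the grading scale of an earlier test, three weeks post-application. Treatment consists of spraying a diluted emulsion formulation across the surface of sterilized diluvial soil in which seeds are buried near 1.5 cm deep; boxes are kept in a greenhouse between 25° C. and 30° C.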

[3] = system: Italian ryegrass; experiment: Test Example 4: herbicidal effect by soil treatment (Table 19, symbol K); format: in vivo, Italian ryegrass (Lolium multiflorum); conditions: amount of applied herbicide 320 g/ha
In short: as §2

[4] = system: Italian ryegrass; experiment: Test Example 5: herbicidal effect by foliage application, plastic box (Table 20, symbol K); format: in vivo, Italian ryegrass (Lolium multiflorum); conditions: evaluated three weeks after application
In short: as §1

[5] = system: barnyard grass; experiment: Test Example 5: herbicidal effect by foliage application, plastic box (Table 20, symbol H); format: in vivo, barnyard grass (Echinochloa crus-galli); conditions: evaluated three weeks after application
In short: as §1

[6] = system: green foxtail; experiment: Test Example 4: herbicidal effect by soil treatment (Table 19, symbol G); format: in vivo, green foxtail (Setaria viridis); conditions: amount of applied herbicide 320 g/ha
In short: as §2

[7] = system: wild oat; experiment: Test Example 5: herbicidal effect by foliage application, plastic box (Table 20, symbol I); format: in vivo, wild oat (Avena fatua); conditions: evaluated three weeks after application
In short: as §1

[8] = system: windgrass; experiment: Test Example 5: herbicidal effect by foliage application, plastic box (Table 20, symbol L); format: in vivo, windgrass (Apera spica-venti); conditions: evaluated three weeks after application
In short: as §1

[9] = system: oval-leafed pondweed; experiment: Test Example 2: herbicidal activity, application during weed generation under submerged conditions (Table 17, symbol C); format: in vivo, oval-leafed pondweed (Monochoria vaginalis); conditions: AAH 320 g/ha; application during weed generation, submerged conditions
In short: (§3)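 3-wk visual-criteria score after one water-surface dose. Emulsion formulation, water-diluted to set rate; applied at 1–2 leaf stage; alluvial soil, 4 cm standing water; seeds co-sown; greenhouse 25–30° C.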

[10] = system: persian speedwell; experiment: Test Example 4: herbicidal effect by soil treatment (Table 19, symbol R); format: in vivo, Persian speedwell (Veronica persica); conditions: amount of applied herbicide 320 g/ha
In short: as §2

[11] = system: windgrass; experiment: Test Example 4: herbicidal effect by soil treatment (Table 19, symbol L); format: in vivo, windgrass (Apera spica-venti); conditions: amount of applied herbicide 320 g/ha
In short: as §2

[12] = system: lambsquarters; experiment: Test Example 4: herbicidal effect by soil treatment (Table 19, symbol O); format: in vivo, lambsquarters (Chenopodium album); conditions: amount of applied herbicide 320 g/ha
In short: as §2

[13] = system: velvetleaf; experiment: Test Example 5: herbicidal effect by foliage application, plastic box (Table 20, symbol M); format: in vivo, velvetleaf (Abutilon theophrasti); conditions: evaluated three weeks after application
In short: as §1

[14] = system: Chinese sprangletop; experiment: Test Example 3: herbicidal effect by foliage application, Wagner pot (Table 18, symbol D); format: in vivo, chinese sprangletop (Leptochloa chinensis)
In short: (§4)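 Plants were sown in alluvial soil held under 0.1–0.5 cm standing water and grown 14 days in a greenhouse at 25–30 °C. An emulsifiable formulation, water-diluted to the set dose, was then sprayed onto the foliage, and effects were scored three weeks later using previously defined criteria.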

[15] = system: barnyard grass; experiment: Test Example 4: herbicidal effect by soil treatment (Table 19, symbol H); format: in vivo, barnyard grass (Echinochloa crus-galli); conditions: amount of applied herbicide 320 g/ha
In short: as §2

[16] = system: Japanese bulrush; experiment: Test Example 2: herbicidal activity, application during weed generation under submerged conditions (Table 17, symbol B); format: in vivo, Japanese bulrush (Schoenoplectus juncoides); conditions: AAH 320 g/ha; application during weed generation, submerged conditions
In short: as §3

[17] = system: late watergrass; experiment: Test Example 2: herbicidal activity, application during weed generation under submerged conditions (Table 17, symbol A); format: in vivo, late watergrass (Echinochloa oryzicola); conditions: AAH 320 g/ha; application during weed generation, submerged conditions
In short: as §3

[18] = system: southern crabgrass; experiment: Test Example 5: herbicidal effect by foliage application, plastic box (Table 20, symbol F); format: in vivo, southern crabgrass (Digitaria ciliaris); conditions: evaluated three weeks after application
In short: as §1

[19] = system: persian speedwell; experiment: Test Example 5: herbicidal effect by foliage application, plastic box (Table 20, symbol R); format: in vivo, Persian speedwell (Veronica persica); conditions: evaluated three weeks after application
In short: as §1

[20] = system: wild oat; experiment: Test Example 4: herbicidal effect by soil treatment (Table 19, symbol I); format: in vivo, wild oat (Avena fatua); conditions: amount of applied herbicide 320 g/ha
In short: as §2

[21] = system: rice flat sedge; experiment: Test Example 3: herbicidal effect by foliage application, Wagner pot (Table 18, symbol E); format: in vivo, rice flat sedge (Cyperus iria)
In short: as §4

[22] = system: southern crabgrass; experiment: Test Example 4: herbicidal effect by soil treatment (Table 19, symbol F); format: in vivo, southern crabgrass (Digitaria ciliaris); conditions: amount of applied herbicide 320 g/ha
In short: as §2

[23] = system: chickweed; experiment: Test Example 5: herbicidal effect by foliage application, plastic box (Table 20, symbol P); format: in vivo, common chickweed (Stellaria media); conditions: evaluated three weeks after application
In short: as §1

[24] = system: chickweed; experiment: Test Example 4: herbicidal effect by soil treatment (Table 19, symbol P); format: in vivo, common chickweed (Stellaria media); conditions: amount of applied herbicide 320 g/ha
In short: as §2

[25] = system: barnyard grass; experiment: Test Example 3: herbicidal effect by foliage application, Wagner pot (Table 18, symbol H); format: in vivo, barnyard grass (Echinochloa crus-galli)
In short: as §4

[26] = system: redroot pigweed; experiment: Test Example 5: herbicidal effect by foliage application, plastic box (Table 20, symbol N); format: in vivo, redroot pigweed (Amaranthus retroflexus); conditions: evaluated three weeks after application
In short: as §1

[27] = system: green foxtail; experiment: Test Example 5: herbicidal effect by foliage application, plastic box (Table 20, symbol G); format: in vivo, green foxtail (Setaria viridis); conditions: evaluated three weeks after application
In short: as §1

[28] = system: blackgrass; experiment: Test Example 5: herbicidal effect by foliage application, plastic box (Table 20, symbol J); format: in vivo, blackgrass (Alopecurus myosuroides); conditions: evaluated three weeks after application
In short: as §1

[29] = system: blackgrass; experiment: Test Example 4: herbicidal effect by soil treatment (Table 19, symbol J); format: in vivo, blackgrass (Alopecurus myosuroides); conditions: amount of applied herbicide 320 g/ha
In short: as §2

[30] = system: velvetleaf; experiment: Test Example 4: herbicidal effect by soil treatment (Table 19, symbol M); format: in vivo, velvetleaf (Abutilon theophrasti); conditions: amount of applied herbicide 320 g/ha
In short: as §2

[31] = amount of applied herbicide 320 g/ha
[32] = amount of applied herbicide 320 g/ha, foliage application after 14-day growth

COc1ccc(-c2sc3ccc(Cl)cc3c2-c2c(O)c(C)nn(C)c2=O)cc1F [2-117]
herbicidal effect on O: lambsquarters ([1]; foliage application, 320 g/ha): 3 (Herbicidal rate of 40% or more and less than 70%)
N: redroot pigweed, herbicidal effect rating [2]: 1 (Herbicidal rate of 5% or more and less than 20%)
K: Italian ryegrass, herbicidal effect rating [3]: 0 (Herbicidal rate of 5% or less (almost no effect))
herbicidal effect on K: Italian ryegrass ([4]; foliage application, 320 g/ha): 0 (Herbicidal rate of 5% or less (almost no effect))
herbicidal effect on H: barnyard grass ([5]; foliage application, 320 g/ha): 0 (Herbicidal rate of 5% or less (almost no effect))
G: green foxtail, herbicidal effect rating [6]: 0 (Herbicidal rate of 5% or less (almost no effect))
herbicidal effect on I: wild oat ([7]; foliage application, 320 g/ha): 0 (Herbicidal rate of 5% or less (almost no effect))
herbicidal effect on L: windgrass ([8]; foliage application, 320 g/ha): 0 (Herbicidal rate of 5% or less (almost no effect))
herbicidal effect rating, C: oval-leafed pondweed [9]: 3 (Herbicidal rate of 40% or more and less than 70%)
R: persian speedwell, herbicidal effect rating [10]: 1 (Herbicidal rate of 5% or more and less than 20%)
L: windgrass, herbicidal effect rating [11]: 0 (Herbicidal rate of 5% or less (almost no effect))
O: lambsquarters, herbicidal effect rating [12]: 3 (Herbicidal rate of 40% or more and less than 70%)
herbicidal effect on M: velvetleaf ([13]; foliage application, 320 g/ha): 4 (Herbicidal rate of 70% or more and less than 90%)
herbicidal effect on D: Chinese sprangletop [14, 31]: 3 (Herbicidal rate of 40% or more and less than 70%)
H: barnyard grass, herbicidal effect rating [15]: 0 (Herbicidal rate of 5% or less (almost no effect))
herbicidal effect rating, B: Japanese bulrush [16]: 2 (Herbicidal rate of 20% or more and less than 40%)
herbicidal effect rating, A: late watergrass [17]: 0 (Herbicidal rate of 5% or less (almost no effect))
herbicidal effect on F: southern crabgrass ([18]; foliage application, 320 g/ha): 0 (Herbicidal rate of 5% or less (almost no effect))
herbicidal effect on R: persian speedwell ([19]; foliage application, 320 g/ha): 5 (Herbicidal rate of 90% or more (almost completely withered))
I: wild oat, herbicidal effect rating [20]: 0 (Herbicidal rate of 5% or less (almost no effect))
herbicidal effect on E: rice flat sedge [21, 31]: 5 (Herbicidal rate of 90% or more (almost completely withered))
F: southern crabgrass, herbicidal effect rating [22]: 0 (Herbicidal rate of 5% or less (almost no effect))
herbicidal effect on P: chickweed ([23]; foliage application, 320 g/ha): 5 (Herbicidal rate of 90% or more (almost completely withered))
P: chickweed, herbicidal effect rating [24]: 0 (Herbicidal rate of 5% or less (almost no effect))
herbicidal effect on H: barnyard grass [25, 31]: 3 (Herbicidal rate of 40% or more and less than 70%)
herbicidal effect on N: redroot pigweed ([26]; foliage application, 320 g/ha): 3 (Herbicidal rate of 40% or more and less than 70%)
herbicidal effect on G: green foxtail ([27]; foliage application, 320 g/ha): 0 (Herbicidal rate of 5% or less (almost no effect))
herbicidal effect on J: blackgrass ([28]; foliage application, 320 g/ha): 0 (Herbicidal rate of 5% or less (almost no effect))
J: blackgrass, herbicidal effect rating [29]: 0 (Herbicidal rate of 5% or less (almost no effect))
M: velvetleaf, herbicidal effect rating [30]: 0 (Herbicidal rate of 5% or less (almost no effect))

Cc1nn(C)c(=O)c(-c2c(-c3ccccc3OC(F)F)sc3cc(F)c(F)cc23)c1O [5-021]
Herbicidal effect by foliage application, O: lambsquarters [1, 32]: 3 (Herbicidal rate of 40% or more and less than 70%)
N: redroot pigweed, herbicidal effect grade [2]: 4 (Herbicidal rate of 70% or more and less than 90%)
K: Italian ryegrass, herbicidal effect grade [3]: 0 (Herbicidal rate of 5% or less (almost no effect))
Herbicidal effect by foliage application, K: Italian ryegrass [4, 32]: 4 (Herbicidal rate of 70% or more and less than 90%)
Herbicidal effect by foliage application, H: barnyard grass [5, 32]: 4 (Herbicidal rate of 70% or more and less than 90%)
G: green foxtail, herbicidal effect grade [6]: 5 (Herbicidal rate of 90% or more (almost completely withered))
Herbicidal effect by foliage application, I: wild oat [7, 32]: 2 (Herbicidal rate of 20% or more and less than 40%)
Herbicidal effect by foliage application, L: windgrass [8, 32]: 5 (Herbicidal rate of 90% or more (almost completely withered))
herbicidal effect rating, C: oval-leafed pondweed [9]: 0 (Herbicidal rate of 5% or less (almost no effect))
R: persian speedwell, herbicidal effect grade [10]: 5 (Herbicidal rate of 90% or more (almost completely withered))
L: windgrass, herbicidal effect grade [11]: 4 (Herbicidal rate of 70% or more and less than 90%)
O: lambsquarters, herbicidal effect grade [12]: 3 (Herbicidal rate of 40% or more and less than 70%)
Herbicidal effect by foliage application, M: velvetleaf [13, 32]: 5 (Herbicidal rate of 90% or more (almost completely withered))
herbicidal effect on Chinese sprangletop (D) ([14]; 320 g/ha): 3 (Herbicidal rate of 40% or more and less than 70%)
H: barnyard grass, herbicidal effect grade [15]: 4 (Herbicidal rate of 70% or more and less than 90%)
herbicidal effect rating, B: Japanese bulrush [16]: 2 (Herbicidal rate of 20% or more and less than 40%)
herbicidal effect rating, A: late watergrass [17]: 0 (Herbicidal rate of 5% or less (almost no effect))
Herbicidal effect by foliage application, F: southern crabgrass [18, 32]: 5 (Herbicidal rate of 90% or more (almost completely withered))
Herbicidal effect by foliage application, R: persian speedwell [19, 32]: 5 (Herbicidal rate of 90% or more (almost completely withered))
I: wild oat, herbicidal effect grade [20]: 0 (Herbicidal rate of 5% or less (almost no effect))
herbicidal effect on rice flat sedge (E) ([21]; 320 g/ha): 5 (Herbicidal rate of 90% or more (almost completely withered))
F: southern crabgrass, herbicidal effect grade [22]: 5 (Herbicidal rate of 90% or more (almost completely withered))
Herbicidal effect by foliage application, P: chickweed [23, 32]: 5 (Herbicidal rate of 90% or more (almost completely withered))
P: chickweed, herbicidal effect grade [24]: 2 (Herbicidal rate of 20% or more and less than 40%)
herbicidal effect on barnyard grass (H) ([25]; 320 g/ha): 4 (Herbicidal rate of 70% or more and less than 90%)
Herbicidal effect by foliage application, N: redroot pigweed [26, 32]: 4 (Herbicidal rate of 70% or more and less than 90%)
Herbicidal effect by foliage application, G: green foxtail [27, 32]: 5 (Herbicidal rate of 90% or more (almost completely withered))
Herbicidal effect by foliage application, J: blackgrass [28, 32]: 4 (Herbicidal rate of 70% or more and less than 90%)
J: blackgrass, herbicidal effect grade [29]: 0 (Herbicidal rate of 5% or less (almost no effect))
M: velvetleaf, herbicidal effect grade [30]: 4 (Herbicidal rate of 70% or more and less than 90%)
